The target in experiment [1] is H1N1 NA (A/California/04/2009) (Influenza A virus (A/California/04/2009(H1N1)), UniProt C3W5S3). Description: biochemical. The following applies: read-out: % Inhibition ± SE H1N1 NA.
For experiment [2], the target named is H5N1 NA (A/Anhui/1/2005) (Influenza A virus (A/Anhui/1/2005(H5N1)), UniProt A0A0C5AGB3). Nature of the experiment: biochemical. The following applies: read-out: % Inhibition ± SE H5N1 NA.

As to `O=C(/C=C/c1ccc(F)cc1)c1ccc(O)cc1` [Compound 1a], the inhibition (usually the share of the control response that was lost under treatment) at 100 µg/mL worked out at 21 ± 7% in experiment [1] and 23 ± 11% in experiment [2].
For `CC(C)Oc1ccc(C(=O)/C=C/c2ccc(F)cc2)cc1` [Compound 1b] the same measures were 5 ± 8% and 0%.
`O=C(/C=C/c1ccc([N+](=O)[O-])cc1)c1ccc(O)cc1` [Compound 2a]: the inhibition at 100 µg/mL was found to be 16 ± 2% in experiment [1] and 21 ± 2% in experiment [2].
As for `COc1cc(C(=O)/C=C/c2ccc(OCc3ccccc3)c(OC)c2)ccc1O` [Compound 2c], the inhibition at 100 µg/mL in experiment [1] stood at 1 ± 4%.
Regarding `O=C(O)c1ccc(/C=C/C(=O)c2ccc(O)cc2)cc1` [Compound 3a], the inhibition at 100 µg/mL in experiment [1] came out at 19 ± 2%; in experiment [2] it was 27%.
For `O=C(/C=C/c1ccc(F)cc1)c1ccc(OCc2ccccc2)cc1` [Compound 3b] the same measures were 2 ± 4% and 18 ± 3%.
`COc1cc(/C=C/C(=O)c2ccc(O)cc2)ccc1OCc1ccccc1` [Compound 3c]: the inhibition at 100 µg/mL in experiment [1] is 2 ± 4%; in experiment [2], 7 ± 8%.
In the case of `O=C(/C=C/c1ccc([N+](=O)[O-])cc1)c1ccc(OC2CCCC2)cc1` [Compound 4b], the inhibition at 100 µg/mL was 5 ± 5% in experiment [1] and 15 ± 3% in experiment [2].
For `COc1cc(C=O)ccc1O` [Vanillin, reference compound], in that order: 86 ± 2% and 84 ± 4%.
